Reference: US20120077738A1, “COMPOSITIONS AND METHODS FOR […] SUSCEPTIBILITY TO ANTIVIRAL AGENTS” (priority 2010, published 2012)

Test system: genotype 1 HCV
Test: HCV outcome after liver transplant in HIV/HCV coinfected patients by calcineurin inhibitor
Format: in vivo, human
Source text: Calcineurin Inhibition Use posttransplant in HIV/HCV infected patients. Eighty HIV/HCV coinfected patients received liver transplants as part of the HIV and transplantation trial from 2003-2009. Of these patients 61 were infected with genotype 1 HCV and received only a liver (not liver+kidney) and are further described here and in the corresponding data shown in FIGS. 1-14.

**Q.** What does the source list for `C=CC[C@@H]1/C=C(\C)C[C@H](C)C[C@H](OC)[C@H]2O[C@@](O)(C(=O)C(=O)N3CCCC[C@H]3C(=O)O[C@H](/C(C)=C/[C@@H]3CC[C@@H](O)[C@H](OC)C3)[C@H](C)[C@@H](O)CC1=O)[C@H](C)C[C@@H]2OC` [Tacrolimus]?
**A.** failed interferon therapy (by calcineurin inhibitor started immediately post transplant, two of the CsA group had switched to Tacrolimus): 13 patients; Sustained Virologic Response (negative HCV PCR 6 months or more after HCV therapy was stopped) (patients on Tacrolimus immediately post transplant who received interferon based therapy): one patient out of these 14
